# Key:
# HCAEC [1] = assay: HCAEC spreading on coated glass slides, static; format: cell-based, human; conditions: 5 μg/cm^2 coating, two hours, p<0.0001
# Experimental: 22×25×1 mm glass slides (Electron Microscopy Sciences, Hatfield, Pa.) were washed sequentially in 100% acetone, ethanol and HCl (2:1), and deionized and Milli-Q H2O, followed by autoclave sterilization. Slides were coated with one of the following PBS-solubilized extracellular matrix proteins at 5 μg/cm^2: (a) human type I collagen (Sigma), (b) human plasma fibronectin (Chemicon), or (c) CS-1 peptide (American Peptide Company). All coated slides were dried overnight at room temperature, rinsed with PBS, and blocked with a 0.01% (w/v) heat-inactivated BSA-solution at room temperature for one hour. HCAEC or HUVEC were seeded onto the slides in basal medium at 1×10^4 cells/cm^2 and permitted to attach and spread for two hours at 37° C. Cells were fixed with 4% (w/v) paraformaldehyde and co-stained for fluorescence microscopic analysis using Texas Red®-X phalloidin (Molecular Probes, Eugene, Oreg.) and DAPI (EMB Chemicals, Inc., San Diego, Calif.). Fluorescence micrographs were captured through a 10× objective on a Nikon Diaphot 200 inverted epifluorescence microscope (Nikon, Inc., Melville, N.Y.) using an Olympus DP70 digital camera (Olympus America, Inc., Melville, N.Y.). Image Tool software package version 3.0 (University of Texas Health Science Center, San Antonio, Tex.) was used to quantify endothelial cell surface area.
# HCAEC [2] = assay: HCAEC cell binding assay to immobilized fibronectin polypeptides (crystal violet); format: cell-based, human; conditions: immobilized peptide, 8 h, on average
# Experimental: Human coronary artery endothelial cell (HCAEC) and human umbilical vein endothelial cell (HUVEC) primary human cells were obtained (Cambrex Corporation, East Rutherford, N.J.) and maintained according to the manufacturer's instructions at 37° C. and 5% CO2. HCAEC were grown in microvascular endothelial cell medium (EBM-2 MV, Cambrex) supplemented with 5% fetal bovine serum, 0.1% human epidermal growth factor, 0.04% hydrocortisone, 0.1% vascular endothelial growth factor, 0.4% human fibroblast growth factor-B, 0.1% R^3-insulin-like growth factor-1, 0.1% ascorbic acid, and 0.1% gentamicin and amphotericin-B (GA-1000). HUVEC were grown in endothelial cell medium (EBM, Cambrex) supplemented with 2% fetal bovine serum, 0.4% bovine brain extract, 0.1% human epidermal growth factor, 0.1% hydrocortisone, and 0.1% gentamicin and amphotericin-B (GA-1000). HCAEC and HUVEC were subcultured at 90-95% confluence using 0.05% trypsin-EDTA (Invitrogen, Carlsbad, Calif.) and used for experiments between passages 3-7 (HUVEC) or 5-11 (HCAEC).
# HCAEC or HUVEC cell binding assays to immobilized recombinant fibronectin polypeptides were performed in order to ascertain which polypeptide(s) maximally support(s) alpha-4 integrin-mediated cell adhesion. Connecting Segment-1 (SEQ ID NO:1), EILDV (SEQ ID NO:2), RGDS (SEQ ID NO:3) (positive control), RGES (SEQ ID NO:4) (negative control), and EILEVPST (SEQ ID NO:5) (negative control) and were immobilized by drying overnight at room temperature in Immobilizer™ Amino 96-well microplates (Nalge Nunc International, Rochester, N.Y.). RGES, EILDV, and EILEVPST were incubated at a molar equivalent concentration equal to 200 μg RGDS per well. CS-1 was incubated at 50 μg/well. On a molar basis per well, this equates to approximately twenty-fold less CS-1 relative to RGDS. […] Cells were manually counted, and their concentration adjusted to yield a total cell population of 5×10^4 cells/well. […] Spectrometric absorbance values were read at 562 nm at room temperature using a ThermoMax microplate reader (Molecular Devices Corporation, Sunnyvale, Calif.).
# human platelets = assay: DiOC6-labeled platelet adhesion imaging under shear flow; format: cell-based; conditions: 16.5 dyne/cm^2, one hour, platelets activated prior to flow
# Experimental: To visualize shear stress-mediated platelet adhesion to the immobilized ECM proteins, non-radiolabeled non-activated or thrombin-activated human platelets were prepared as described above, but were first incubated for ten minutes at room temperature with a 10 μM DiOC6 (dihexaoxacarbocyanine iodide) (Sigma) solution prior to being subjected to flow for one hour at a shear stress τ=16.5 dyne/cm^2. Post-flow, all slides were rinsed twice with PBS and fixed with 4% (w/v) paraformaldehyde. Platelet adhesion was visualized on a Nikon Diaphot 200 inverted epifluorescence microscope (Nikon) at 488 nm using a 40× objective. Images were captured using an Olympus DP70 digital camera (Olympus America, Inc.) and analyzed using the Adobe® Photoshop® software package version 6.0 (Adobe Systems Incorporated, San Jose, Calif.).
substance,measurement,setting,value
"CS-1: full-length 25 amino acid polypeptide, first 25 amino acid sequence of the fibronectin type IIICS domain (DELPQLVTLPHPNLHGPEILDVPST; Homo sapien)",HCAEC spread area relative to the non-ECM-coated control substrate,HCAEC [1],statistically significant increase
same,more of the total HCAEC population adhered relative to RGES,HCAEC [2],about 20%
same,thrombin-activated platelet adhesion and thrombus formation (DiOC6 images),human platelets,higher binding to the CS-1 substratum relative to their non-activated counterparts

# From US20100008965A1, “BIOCOMPATIBLE MEDICAL PRODUCTS HAVING ENHANCED ANTI-THROMBOGENIC PROPERTIES” (priority 2008, published 2010)
